Measurements: patent US20060286670A1, “Transplant acceptance inducing cells of monocytic origin and their preparation and use” (BLASTICON BIOTECHNOLOGISCHE FORSCHUNG GMBH, priority 2002, published 2006)

Tested on: PHA-stimulated lymphocytes
Assay: Mixed lymphocyte culture of PHA-stimulated lymphocytes and TAIC, 3[H]-thymidine incorporation
Format: cell-based, human
Settings: 2 μmol 1-MT
Procedure: In order to clarify, whether the inhibitor of the enzyme indolamine-2,3-dioxygenase (IDO) 1-methyltryptophane (1-MT) influences the suppressor function of the TAIC generated in the “Mo” and “Mo+Ly” set ups (see Example 11), a variety of mixed lymphocyte cultures (MLC) with PHA (phytohaemagglutinine) stimulated T-cells in the presence and in the absence of 1-MT were established.
In these mixed lymphocyte cultures 50.000 lymphocytes with 2 μg […] were transferred into the wells of a 96-well-plate, followed by a proliferation period over 144 hours (indicated as “PhaLy”). Lymphocytes only cultivated in medium without addition of PHA were run as a further control (indicated as “Ly”).
In order to determine the proliferation of PHA-stimulated lymphocytes in the different co-cultures, the following 4 set ups were run and examined:
In this arrangement, the amount of the radio activity determined is a measure for the amount of labeled thymidine incorporated into the DNA, and therefore a measure for the proliferation rate of the lymphocytes. The values reported in FIG. 8 correspond to mean values from triple determinations of 3 experiments each with indication of the standard deviation.

Cn1cc(C[C@H](N)C(=O)O)c2ccccc21 [1-MT, 1-methyltryptophane]
influence on the suppressor function of the TAIC: increases the suppressor function of the TAIC synergistically
